Test results: ChEMBL document CHEMBL3045620, “Trypsin inhibitory potential and microbial transformation of rutin isolated from Citrus sinensis” (Med Chem Res, 2013)

Columns and labels:
Format in all cases: protein assay
[1] = molecular target: T1, Trypsin (Homo sapiens, UniProt P07477+P07478+P35030); experiment: Inhibition of trypsin (unknown origin) using BApNA as substrate incubated for 15 min prior to substrate addition measured after 30 min by UV/VIS spectrophotometric analysis
[2] = molecular target: T1, Trypsin; experiment: Inhibition of trypsin (unknown origin) using BApNA as substrate at 2 mg/ml incubated for 15 min prior to substrate addition measured after 30 min by UV/VIS spectrophotometric analysis
[3] = molecular target: T1, Trypsin; experiment: Non-competitive inhibition of trypsin (unknown origin) using BApNA as substrate by Lineweaver-Burk/Dixon plot analysis

Row | SMILES | IC50 [1] [µM] | inhibition [2] [%] | Ki [3] [µM]
1 | O=S(=O)(F)Cc1ccccc1 [PHENYLMETHYLSULFONYLFLUORIDE] | 110 | 87.4 | –
2 | C[C@@H]1O[C@@H](OC[C@H]2O[C@@H](Oc3c(-c4ccc(O)c(O)c4)oc4cc(O)cc(O)c4c3=O)[C@H](O)[C@@H](O)[C@@H]2O)[C@H](O)[C@H](O)[C@H]1O [RUTIN] | 16 | 75.2 | 17.5
3 | O=c1c(O)c(-c2ccc(O)c(O)c2)oc2cc(O)cc(O)c12 [QUERCETIN] | 19 | 84.1 | 13.1
